# In patent US20170050939A1, “SMALL MOLECULE INHIBITORS OF G PROTEIN COUPLED RECEPTOR 6 KINASE POLYPEPTIDES” (Mayo Foundation for Medical Education and Research, priority 2014, published 2017):
# Target: T1, GRK6, recombinant full-length GST-tagged human protein (Homo sapiens, UniProt P43250)
# T1 construct: GRK6, recombinant full-length GST-tagged human protein; GST
# Test: GRK6 IC50 determination (8-point concentration-response)
# Assay type: biochemical
# Details: not given
# Excerpt: Two hundred forty compounds were further characterized by determining IC50 values in a GRK6 assay. This screen has been previously described in WO 2013/063458, which is incorporated by reference in its entirety herein.
# T1 sequence (P43250 whole entry): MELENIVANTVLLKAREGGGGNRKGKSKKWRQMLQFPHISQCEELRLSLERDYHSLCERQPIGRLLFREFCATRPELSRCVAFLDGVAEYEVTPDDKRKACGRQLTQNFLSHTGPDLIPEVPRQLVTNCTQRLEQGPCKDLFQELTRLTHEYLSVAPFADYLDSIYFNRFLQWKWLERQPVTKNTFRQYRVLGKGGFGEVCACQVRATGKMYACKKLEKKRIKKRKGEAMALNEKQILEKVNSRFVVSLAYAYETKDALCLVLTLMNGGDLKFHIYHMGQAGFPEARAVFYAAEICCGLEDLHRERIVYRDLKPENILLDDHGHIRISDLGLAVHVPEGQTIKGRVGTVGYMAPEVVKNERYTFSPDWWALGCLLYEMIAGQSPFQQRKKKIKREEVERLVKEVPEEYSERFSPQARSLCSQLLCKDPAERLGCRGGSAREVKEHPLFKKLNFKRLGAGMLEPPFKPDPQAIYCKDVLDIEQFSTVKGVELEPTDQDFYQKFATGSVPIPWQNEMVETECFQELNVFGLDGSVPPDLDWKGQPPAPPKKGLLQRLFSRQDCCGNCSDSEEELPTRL
row,IC50 [nM],SMILES
1,20200,CN1CCOc2cc(-c3nnc(SCC(=O)O)[nH]3)ccc21 [Compound 166]
2,178,N#CCc1cc(-c2ccc3ccccc3c2)cc(-c2nnc(SCC(=O)O)[nH]2)c1 [Compound 18]
3,1580,COc1ncccc1-c1cc(-c2ccc3ccccc3c2)cc(-c2nnc(SCC(=O)O)[nH]2)c1 [Compound 68]
4,879,Cc1onc(-c2ccccc2)c1-c1cc(-c2nnc(SCC(=O)O)[nH]2)cc([N+](=O)[O-])c1 [Compound 84]
5,> 58000,O=C(O)CSc1nnc(-c2cc3c(cc2[N+](=O)[O-])OCO3)[nH]1 [Compound 212]
6,262,CC(=O)Nc1ccc(-c2cc(-c3nnc(SCC(=O)O)[nH]3)cc([N+](=O)[O-])c2)cc1 [Compound 27]
7,750,Cc1nn(C)cc1-c1cc(-c2nnc(SCC(=O)O)[nH]2)cc([N+](=O)[O-])c1 [Compound 79]
8,4620,COc1cc(-c2nnc(SCC(=O)O)[nH]2)ccc1F [Compound 114]
9,686,O=C(O)CSc1nnc(-c2cc(-c3ccoc3)cc(-c3ccc4ccccc4c3)c2)[nH]1 [Compound 56]
10,> 80000,O=C(O)CSc1nnc(-c2c(O)ccc3ccccc23)[nH]1 [Compound 224]
11,67.4,O=C(O)CSc1nnc(-c2cc(-c3ccc4[nH]cc(-c5ccccc5)c4c3)cc([N+](=O)[O-])c2)[nH]1 [Compound 4]
12,499,Cn1c(-c2ccccc2)cc2cc(-c3cc(-c4nnc(SCC(=O)O)[nH]4)cc([N+](=O)[O-])c3)ccc21 [Compound 48]
13,101,NC(=O)c1cc2cc(-c3cc(-c4n[nH]c(SCC(=O)O)n4)cc([N+](=O)[O-])c3)ccc2[nH]1 [Compound 228]
14,473,CS(=O)(=O)Nc1ccc(-c2cc(-c3nnc(SCC(=O)O)[nH]3)cc([N+](=O)[O-])c2)cc1 [Compound 47]
15,1350,O=C(O)CSc1nnc(-c2cc(Br)cc([N+](=O)[O-])c2)[nH]1 [Compound 90]
16,17500,O=C(O)CSc1nnc(-c2cccc(C(=O)Nc3ccc4ncccc4c3)c2)[nH]1 [Compound 161]
17,150,Cc1cn(C)c2ccc(-c3cc(-c4nnc(SCC(=O)O)[nH]4)cc([N+](=O)[O-])c3)cc12 [Compound 230]
18,60,Cn1cc(Cl)c2cc(-c3cc(-c4n[nH]c(SCC(=O)O)n4)cc([N+](=O)[O-])c3)ccc21 [Compound 227]
19,136,COc1cc(Cl)cc(-c2cc(-c3nnc(SCC(=O)O)[nH]3)cc([N+](=O)[O-])c2)c1 [Compound 14]

row,IC50 [nM],SMILES
1,5060,O=C(O)CSc1nnc(-c2cc(Br)cc([N+](=O)[O-])c2)n1CC(=O)O [Compound 120]
2,168,N#Cc1cc(-c2ccc3ccccc3c2)cc(-c2nnc(SCC(=O)O)[nH]2)c1 [Compound 17]
3,1020,Cc1noc(C)c1-c1cc(-c2ccc3ccccc3c2)cc(-c2nnc(SCC(=O)O)[nH]2)c1 [Compound 65]
4,379,O=C(O)CSc1nnc(-c2cc(-c3cn[nH]c3)cc([N+](=O)[O-])c2)[nH]1 [Compound 74]
5,114,O=C(O)CSc1nnc(-c2cc(-c3cccc4[nH]ncc34)cc([N+](=O)[O-])c2)[nH]1 [Compound 10]
6,729,Cn1ccc2cc(-c3cc(-c4nnc(SCC(=O)O)[nH]4)cc(C(F)(F)F)c3)ccc21 [Compound 239]
7,518,CN(C)c1ccc(-c2cc(-c3nnc(SCC(=O)O)[nH]3)cc([N+](=O)[O-])c2)cc1 [Compound 52]
8,421,O=C(O)CSc1nc(-c2cc(Br)cc(-c3ccc4ccccc4c3)c2)n[nH]1 [Compound 40]
9,2020,O=C(O)CSc1nnc(-c2cc(-c3cnn(CC(=O)O)c3)cc([N+](=O)[O-])c2)[nH]1 [Compound 95]
10,33300,O=C(O)CSc1nnc(-c2cccc(C(=O)NCc3ccccc3)c2)[nH]1 [Compound 176]
11,14400,Cc1cccc(-c2nnc(SCC(=O)O)[nH]2)c1 [Compound 156]
12,2750,CC(C)CNC(=O)c1cc(-c2nnc(SCC(=O)O)[nH]2)cc([N+](=O)[O-])c1 [Compound 100]
13,440,CNC(=O)c1ccc(-c2cc(-c3nnc(SCC(=O)O)[nH]3)cc([N+](=O)[O-])c2)cc1 [Compound 45]
14,103,Cc1c(-c2ccc3c(ccn3C)c2)cc(-c2nnc(SCC(=O)O)[nH]2)cc1[N+](=O)[O-] [Compound 9]
15,180,O=C(O)CSc1nnc(-c2cc(-c3ccc4ncccc4c3)cc([N+](=O)[O-])c2)[nH]1 [Compound 19]
16,1860,O=C(O)CSc1nnc(-c2cc(-c3ccncc3)cc(-c3ccc4ccccc4c3)c2)[nH]1 [Compound 69]
17,7930,O=C(O)CSc1nnc(-c2ccc3c(c2)OC(F)(F)O3)[nH]1 [Compound 136]
18,402,Cc1c(-c2cc(-c3nnc(SCC(=O)O)[nH]3)cc([N+](=O)[O-])c2)ccc2[nH]c(C#N)cc12 [Compound 236]
19,3300,CC(C)Oc1ccc(-c2nnc(SCC(=O)O)[nH]2)cc1[N+](=O)[O-] [Compound 104]

row,IC50 [nM],SMILES
1,12400,O=C(O)CSc1nnc(-c2cccc(Oc3ccccc3)c2)[nH]1 [Compound 150]
2,797,Cc1c(-c2cc(-c3nnc(SCC(=O)O)[nH]3)cc([N+](=O)[O-])c2)cnn1C [Compound 83]
3,786,CC(C)(O)c1ccc(-c2cc(-c3nnc(SCC(=O)O)[nH]3)cc([N+](=O)[O-])c2)cc1 [Compound 61]
4,351,CC(=O)Nc1cc(-c2ccc3ccccc3c2)cc(-c2nnc(SCC(=O)O)[nH]2)c1 [Compound 35]
5,359,O=C(O)CSc1nnc(-c2cc(-c3cccc4cnccc34)cc([N+](=O)[O-])c2)[nH]1 [Compound 37]
6,11800,O=C(O)CSc1nnc(-c2cccc(C(=O)Nc3ccccc3)c2)[nH]1 [Compound 149]
7,131,O=C(O)CSc1nnc(-c2cc(-c3cnn(-c4cccc(Cl)c4)c3)cc([N+](=O)[O-])c2)[nH]1 [Compound 71]
8,431,Cn1ccc(-c2cc(-c3nnc(SCC(=O)O)[nH]3)cc([N+](=O)[O-])c2)n1 [Compound 75]
9,438,O=C(O)CSc1nnc(-c2cc(-c3cccc4c3oc3ccccc34)cc([N+](=O)[O-])c2)[nH]1 [Compound 237]
10,50,Cn1ccc2ccc(-c3cc(-c4nnc(SCC(=O)O)[nH]4)cc([N+](=O)[O-])c3)cc21 [Compound 1]
11,437,Cc1ncc(-c2cc(-c3ccc4ccccc4c3)cc(-c3nnc(SCC(=O)O)[nH]3)c2)cn1 [Compound 44]
12,184,N#Cc1cc2cc(-c3cc(-c4nnc(SCC(=O)O)[nH]4)cc([N+](=O)[O-])c3)ccc2[nH]1 [Compound 232]
13,3300,COc1cc(-c2nnc(SCC(=O)O)[nH]2)cc(C)c1O [Compound 103]
14,631,O=C(O)CSc1nnc(-c2cc(-c3cncc(F)c3)cc(-c3ccc4ccccc4c3)c2)[nH]1 [Compound 55]
15,184,Cn1ncc2cc(-c3cc(-c4nnc(SCC(=O)O)[nH]4)cc([N+](=O)[O-])c3)ccc21 [Compound 21]
16,34000,O=C(O)CSc1nnc(-c2cccc(C(=O)Nc3cccnc3)c2)[nH]1 [Compound 177]
17,122,O=C(O)CSc1nnc(-c2cc(-c3ccc4ccccc4c3)cc(-c3cnco3)c2)[nH]1 [Compound 13]
18,249,O=C(O)CSc1nnc(-c2cc(-c3ccc4[nH]cnc4c3)cc([N+](=O)[O-])c2)[nH]1 [Compound 26]

# Same assay, conditions: 20 nM GRK6, 12 μM ATP (Km), 1 μM Peptide 216, 7 h incubation
row,IC50 [nM],SMILES
1,2310,N#Cc1cccc(-c2nnc(SCC(=O)O)[nH]2)c1 [Compound 96]
2,45300,Cc1cc(C=O)c(O)c(-c2nnc(SCC(=O)O)[nH]2)c1 [Compound 185]
3,20900,COc1ccc(-c2nnc(SCC(=O)O)[nH]2)c(O)c1 [Compound 169]
4,13300,COc1ccc(-c2nnc(SCC(=O)O)[nH]2)cc1O [Compound 152]
5,18900,CNS(=O)(=O)c1cccc(-c2nnc(SCC(=O)O)[nH]2)c1 [Compound 165]
6,5850,COc1cccc(-c2nnc(SCC(=O)O)[nH]2)c1 [Compound 121]
7,6160,O=C(O)CSc1nnc(-c2cc(O)ccc2O)[nH]1 [Compound 123]
8,7300,O=C(O)CSc1nnc(-c2ccc(O)c(F)c2)[nH]1 [Compound 131]
9,81700,O=C(O)CSc1nnc(-c2cc(C(=O)O)ccc2F)[nH]1 [Compound 191]
10,35700,O=C(O)CSc1nnc(-c2ccc(N3CCCCC3)cc2F)[nH]1 [Compound 180]
11,8230,COc1cc(-c2nnc(SCC(=O)O)[nH]2)cc(OC)c1OC [Compound 137]
12,919,N#Cc1cccc(-c2cccc(-c3nnc(SCC(=O)O)[nH]3)c2)c1 [Compound 64]
13,74100,CSc1ccccc1-c1nnc(SCC(=O)O)[nH]1 [Compound 188]
14,757,O=C(O)CSc1nnc(-c2cccc(-c3cccs3)c2)[nH]1 [Compound 81]
15,16200,O=C(O)CSc1nnc(-c2cccc(Cn3cccn3)c2)[nH]1 [Compound 159]
16,87000,COc1ccc(Br)cc1-c1nnc(SCC(=O)O)[nH]1 [Compound 192]
17,1400,O=C(O)CSc1nnc(-c2cccc([N+](=O)[O-])c2)[nH]1 [Compound 92]
18,3360,O=C(O)CSc1nnc(-c2ccc(F)c(F)c2)[nH]1 [Compound 106]
19,9900,COc1cc(-c2nnc(SCC(=O)O)[nH]2)ccc1OC(C)=O [Compound 144]
20,6500,O=C(O)CSc1nnc(-c2cccc(-c3cnccn3)c2)[nH]1 [Compound 126]
21,8830,COc1cc(-c2nnc(SCC(=O)O)[nH]2)ccc1OC(=O)C1CC1 [Compound 139]
22,21900,O=C(O)CSc1nnc(-c2cccc(N3CCNCC3)c2)[nH]1 [Compound 171]
23,8750,O=C(O)CSc1nnc(-c2cccc(F)c2O)[nH]1 [Compound 138]
24,6880,Cc1ccc(-c2nnc(SCC(=O)O)[nH]2)c(O)c1 [Compound 129]
25,40000,CN(C)c1ccc(-c2nnc(SCC(=O)O)[nH]2)c([N+](=O)[O-])c1 [Compound 183]
